In PMC7812727, “Neuropilin 1 and Neuropilin 2 gene invalidation or pharmacological inhibition reveals their relevance for the treatment of metastatic renal cell carcinoma” (Journal of Experimental & Clinical Cancer Research : CR, 2021):

Experiments:
NRP2 (Neuropilin 2) = target: T1, NRP2 (Neuropilin 2) (Homo sapiens, UniProt O60462); assay: plate-based competitive binding assay: displacement of biotinylated VEGFA, or of VEGFC, from coated recombinant human NRP2 (chemiluminescence); assay type: biochemical
T1 construct: recombinant human NRP2
T1 sequence (O60462 21-931): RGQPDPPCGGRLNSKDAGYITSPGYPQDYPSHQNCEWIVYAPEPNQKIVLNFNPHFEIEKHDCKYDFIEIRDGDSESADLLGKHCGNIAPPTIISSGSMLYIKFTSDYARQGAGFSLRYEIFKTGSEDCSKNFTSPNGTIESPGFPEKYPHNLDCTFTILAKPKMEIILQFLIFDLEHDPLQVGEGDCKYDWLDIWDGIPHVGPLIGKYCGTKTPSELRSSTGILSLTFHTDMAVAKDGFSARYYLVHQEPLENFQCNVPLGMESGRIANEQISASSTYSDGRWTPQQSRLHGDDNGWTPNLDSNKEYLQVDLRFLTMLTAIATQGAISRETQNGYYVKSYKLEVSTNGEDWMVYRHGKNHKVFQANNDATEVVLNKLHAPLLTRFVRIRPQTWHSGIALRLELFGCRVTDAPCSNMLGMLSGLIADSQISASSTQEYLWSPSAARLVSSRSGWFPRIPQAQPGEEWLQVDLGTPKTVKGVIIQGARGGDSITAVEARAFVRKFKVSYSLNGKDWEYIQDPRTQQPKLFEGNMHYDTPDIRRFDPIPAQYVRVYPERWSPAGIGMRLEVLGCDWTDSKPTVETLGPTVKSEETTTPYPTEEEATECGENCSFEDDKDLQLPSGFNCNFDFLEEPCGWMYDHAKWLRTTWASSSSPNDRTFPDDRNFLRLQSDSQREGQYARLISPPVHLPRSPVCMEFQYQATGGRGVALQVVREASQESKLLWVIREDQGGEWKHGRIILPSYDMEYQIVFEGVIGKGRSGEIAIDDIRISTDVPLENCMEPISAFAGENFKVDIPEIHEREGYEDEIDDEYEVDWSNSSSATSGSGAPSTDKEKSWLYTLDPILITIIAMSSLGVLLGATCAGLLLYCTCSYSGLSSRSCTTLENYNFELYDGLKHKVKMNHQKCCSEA
Source text: plate-based competitive binding assay: displacement of biotinylated VEGFA, or of VEGFC, from coated recombinant human NRP2 (chemiluminescence) on NRP2 (Neuropilin 2) | NRPa-308 inhibited VEGFA/NRP1 and VEGFA/NRP2 binding in a dose-dependent manner

NRP1 (Neuropilin 1) = target: T2, NRP1 (Neuropilin 1) (Homo sapiens, UniProt O14786); assay: plate-based competitive binding assay: displacement of biotinylated VEGFA from coated recombinant human NRP1 (chemiluminescence); assay type: biochemical
T2 construct: recombinant human NRP1
T2 sequence (O14786 22-923): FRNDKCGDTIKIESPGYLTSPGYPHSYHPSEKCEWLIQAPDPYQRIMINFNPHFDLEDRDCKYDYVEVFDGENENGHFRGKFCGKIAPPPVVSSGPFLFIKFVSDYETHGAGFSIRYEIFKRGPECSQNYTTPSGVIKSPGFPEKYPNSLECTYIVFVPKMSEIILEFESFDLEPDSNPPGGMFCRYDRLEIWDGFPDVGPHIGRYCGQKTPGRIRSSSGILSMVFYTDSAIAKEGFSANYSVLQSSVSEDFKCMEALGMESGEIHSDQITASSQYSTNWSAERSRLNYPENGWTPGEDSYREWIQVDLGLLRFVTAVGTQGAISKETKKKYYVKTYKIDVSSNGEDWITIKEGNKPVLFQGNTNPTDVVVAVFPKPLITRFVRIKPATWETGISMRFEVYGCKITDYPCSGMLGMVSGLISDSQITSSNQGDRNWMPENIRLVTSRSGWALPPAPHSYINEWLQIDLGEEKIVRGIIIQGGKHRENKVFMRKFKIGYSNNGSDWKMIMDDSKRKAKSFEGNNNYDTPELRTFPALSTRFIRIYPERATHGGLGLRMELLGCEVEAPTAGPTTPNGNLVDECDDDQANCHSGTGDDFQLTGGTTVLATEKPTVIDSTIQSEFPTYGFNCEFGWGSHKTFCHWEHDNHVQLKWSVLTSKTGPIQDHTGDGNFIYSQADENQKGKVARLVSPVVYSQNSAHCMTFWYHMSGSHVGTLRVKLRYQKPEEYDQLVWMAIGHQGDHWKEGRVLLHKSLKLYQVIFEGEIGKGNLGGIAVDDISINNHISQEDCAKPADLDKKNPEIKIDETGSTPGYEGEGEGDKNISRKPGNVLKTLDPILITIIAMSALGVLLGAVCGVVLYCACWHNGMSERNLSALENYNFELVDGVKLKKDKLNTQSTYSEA
Source text: plate-based competitive binding assay: displacement of biotinylated VEGFA from coated recombinant human NRP1 (chemiluminescence) on NRP1 (Neuropilin 1) | NRPa-308 inhibited VEGFA/NRP1 and VEGFA/NRP2 binding in a dose-dependent manner

- % maximal inhibition (NRP2 (Neuropilin 2)): ~ 40 % maximal inhibition
- % maximal inhibition (NRP1 (Neuropilin 1)): ~ 40 % maximal inhibition
Structure (SMILES): CCOc1ccccc1NC(=O)c1ccc(C)c(S(=O)(=O)Nc2ccc(C)cc2)c1 [NRPa-308]
